Values after ≈ are worked out from the molar mass of the structure shown.
Experiments:
Assay type in all cases: functional
[1] = system: Escherichia coli; assay: Antimicrobial activity against Escherichia coli J53 harboring beta-lactamase TEM-1, SHV-12 and Oxa-9 by Etest
[2] = system: Klebsiella pneumoniae; assay: Antimicrobial activity against Klebsiella pneumoniae containing PFGE clone B expressing beta-lactamase Oxa-48, TEM-1, CTX-M-15 and Oxa-1 by Etest
[3] = system: Klebsiella pneumoniae; assay: Antimicrobial activity against Klebsiella pneumoniae isolate 21 expressing beta-lactamase Oxa-48, TEM-1 and Oxa-9 by Etest
[4] = system: Klebsiella pneumoniae; assay: Antimicrobial activity against Klebsiella pneumoniae isolate 11 expressing beta-lactamase Oxa-48, TEM-1 and Oxa-1 by Etest
[5] = system: Escherichia coli; assay: Antimicrobial activity against Escherichia coli J53 harboring beta-lactamase TEM-1, CTX-M-15 and Oxa-1 by Etest
[6] = system: Escherichia coli; assay: Antimicrobial activity against Escherichia coli J53 harboring beta-lactamase Oxa-48 by Etest
[7] = system: Klebsiella pneumoniae; assay: Antimicrobial activity against Klebsiella pneumoniae containing PFGE clone A expressing beta-lactamase Oxa-48, TEM-1, SHV-12 and Oxa-9 by Etest
[8] = system: Escherichia coli; assay: Antimicrobial activity against Escherichia coli J53 by Etest
[9] = system: Klebsiella pneumoniae; assay: Antimicrobial activity against Klebsiella pneumoniae isolate 11 expressing beta-lactamase Oxa-48, TEM-1 and Oxa-1 by Etest in presence of beta-lactamase inhibitor clavulanic acid
[10] = system: Klebsiella pneumoniae; assay: Antimicrobial activity against Klebsiella pneumoniae isolate 21 expressing beta-lactamase Oxa-48, TEM-1 and Oxa-9 by Etest in presence of beta-lactamase inhibitor clavulanic acid
[11] = system: Klebsiella pneumoniae; assay: Antimicrobial activity against Klebsiella pneumoniae containing PFGE clone A expressing beta-lactamase Oxa-48, TEM-1, SHV-12 and Oxa-9 by Etest in presence of beta-lactamase inhibitor clavulanic acid
[12] = system: Escherichia coli; assay: Antimicrobial activity against Escherichia coli J53 by Etest in presence of beta-lactamase inhibitor clavulanic acid
[13] = system: Escherichia coli; assay: Antimicrobial activity against Escherichia coli J53 harboring beta-lactamase Oxa-48 by Etest in presence of beta-lactamase inhibitor clavulanic acid
[14] = system: Klebsiella pneumoniae; assay: Antimicrobial activity against Klebsiella pneumoniae containing PFGE clone B expressing beta-lactamase Oxa-48, TEM-1, CTX-M-15 and Oxa-1 by Etest in presence of beta-lactamase inhibitor clavulanic acid
[15] = system: Escherichia coli; assay: Antimicrobial activity against Escherichia coli J53 harboring beta-lactamase TEM-1, CTX-M-15 and Oxa-1 by Etest in presence of beta-lactamase inhibitor clavulanic acid
[16] = system: Escherichia coli; assay: Antimicrobial activity against Escherichia coli J53 harboring beta-lactamase TEM-1, SHV-12 and Oxa-9 by Etest in presence of beta-lactamase inhibitor clavulanic acid
[17] = system: Klebsiella pneumoniae; assay: Antimicrobial activity against Klebsiella pneumoniae containing PFGE clone A expressing beta-lactamase Oxa-48, TEM-1, SHV-12 and Oxa-9 by Etest in presence of beta-lactamase inhibitor Tazobactam
[18] = system: Klebsiella pneumoniae; assay: Antimicrobial activity against Klebsiella pneumoniae isolate 21 expressing beta-lactamase Oxa-48, TEM-1 and Oxa-9 by Etest in presence of beta-lactamase inhibitor Tazobactam
[19] = system: Escherichia coli; assay: Antimicrobial activity against Escherichia coli J53 harboring beta-lactamase Oxa-48 by Etest in presence of beta-lactamase inhibitor Tazobactam
[20] = system: Escherichia coli; assay: Antimicrobial activity against Escherichia coli J53 harboring beta-lactamase TEM-1, SHV-12 and Oxa-9 by Etest in presence of beta-lactamase inhibitor Tazobactam
[21] = system: Escherichia coli; assay: Antimicrobial activity against Escherichia coli J53 by Etest in presence of beta-lactamase inhibitor Tazobactam
[22] = system: Escherichia coli; assay: Antimicrobial activity against Escherichia coli J53 harboring beta-lactamase TEM-1, CTX-M-15 and Oxa-1 by Etest in presence of beta-lactamase inhibitor Tazobactam
[23] = system: Klebsiella pneumoniae; assay: Antimicrobial activity against Klebsiella pneumoniae containing PFGE clone B expressing beta-lactamase Oxa-48, TEM-1, CTX-M-15 and Oxa-1 by Etest in presence of beta-lactamase inhibitor Tazobactam
[24] = system: Klebsiella pneumoniae; assay: Antimicrobial activity against Klebsiella pneumoniae isolate 11 expressing beta-lactamase Oxa-48, TEM-1 and Oxa-1 by Etest in presence of beta-lactamase inhibitor Tazobactam

Molecule | MIC [1] [µg/mL] | MIC [2] [µg/mL] | MIC [3] [µg/mL] | MIC [4] [µg/mL] | MIC [5] [µg/mL] | MIC [6] [µg/mL] | MIC [7] [µg/mL] | MIC [8] [µg/mL] | other results
C[C@@H](O)[C@H]1C(=O)N2C(C(=O)O)=C(SCCNC=N)C[C@H]12 [IMIPENEM ANHYDROUS] | < 1 | 4 (≈ 13.4 µM) | 8 (≈ 26.7 µM) | 8 (≈ 26.7 µM) | < 1 | 0.5 (≈ 1.67 µM) | 4 (≈ 13.4 µM) | – | –
CO/N=C(\C(=O)N[C@@H]1C(=O)N2C(C(=O)O)=C(COC(C)=O)CS[C@H]12)c1csc(N)n1 [CEFOTAXIME] | 4 (≈ 8.78 µM) | > 512 | 4 (≈ 8.78 µM) | 4 (≈ 8.78 µM) | > 32 | 0.5 (≈ 1.1 µM) | > 512 | 0.5 (≈ 1.1 µM) | –
CC1(C)S[C@@H]2[C@H](NC(=O)[C@H](N)c3ccc(O)cc3)C(=O)N2[C@H]1C(=O)O [AMOXICILLIN] | > 512 | > 512 | > 512 | > 512 | > 512 | > 512 | > 512 | 1 (≈ 2.74 µM) | MIC [9]: > 512 µg/mL; MIC [10]: > 512 µg/mL; MIC [11]: > 512 µg/mL; MIC [12]: 1 µg/mL; MIC [13]: > 512 µg/mL; MIC [14]: > 512 µg/mL; MIC [15]: > 513 µg/mL; MIC [16]: > 512 µg/mL
CC1(C)S[C@@H]2[C@H](NC(=O)[C@H](C(=O)O)c3ccsc3)C(=O)N2[C@H]1C(=O)O [TICARCILLIN] | > 512 | > 512 | > 512 | > 512 | > 514 | > 512 | > 512 | 4 (≈ 10.4 µM) | MIC [9]: > 512 µg/mL; MIC [10]: > 512 µg/mL; MIC [11]: > 512 µg/mL; MIC [12]: 4 µg/mL; MIC [13]: > 512 µg/mL; MIC [14]: > 512 µg/mL; MIC [15]: > 512 µg/mL; MIC [16]: > 512 µg/mL
NC[C@H]1O[C@H](O[C@H]2[C@H](O)[C@@H](O[C@H]3O[C@H](CO)[C@@H](O)[C@H](N)[C@H]3O)[C@H](N)C[C@@H]2N)[C@H](N)C[C@@H]1O [TOBRAMYCIN] | – | > 64 | – | – | – | – | > 64 | – | –
CO/N=C(\C(=O)N[C@@H]1C(=O)N2C(C(=O)[O-])=C(C[N+]3(C)CCCC3)CS[C@H]12)c1csc(N)n1 | 0.5 (≈ 1.04 µM) | – | 4 (≈ 8.32 µM) | 4 (≈ 8.32 µM) | 4 (≈ 8.32 µM) | < 0.5 | – | 0.125 (≈ 0.26 µM) | –
NCC[C@H](O)C(=O)N[C@@H]1C[C@H](N)[C@@H](O[C@H]2O[C@H](CN)[C@@H](O)[C@H](O)[C@H]2O)[C@H](O)[C@H]1O[C@H]1O[C@H](CO)[C@@H](O)[C@H](N)[C@H]1O [AMIKACIN] | – | 2 (≈ 3.42 µM) | – | – | – | – | 16 (≈ 27.3 µM) | – | –
CC(C)(O/N=C(\C(=O)N[C@@H]1C(=O)N2C(C(=O)[O-])=C(C[n+]3ccccc3)CS[C@H]12)c1csc(N)n1)C(=O)O [CEFTAZIDIME] | 64 (≈ 117 µM) | > 512 | 2 (≈ 3.66 µM) | 2 (≈ 3.66 µM) | 128 (≈ 234 µM) | 1 (≈ 1.83 µM) | > 512 | 1 (≈ 1.83 µM) | –
CCN1CCN(C(=O)N[C@@H](C(=O)N[C@@H]2C(=O)N3[C@@H]2SC(C)(C)[C@@H]3C(=O)O)c2ccccc2)C(=O)C1=O [PIPERACILLIN] | > 512 | > 512 | > 512 | > 512 | > 512 | > 512 | > 512 | 4 (≈ 7.73 µM) | MIC [17]: > 512 µg/mL; MIC [18]: > 512 µg/mL; MIC [19]: 64 µg/mL; MIC [20]: > 4 µg/mL; MIC [21]: 4 µg/mL; MIC [22]: > 4 µg/mL; MIC [23]: > 512 µg/mL; MIC [24]: > 512 µg/mL
CC1COc2c(N3CCN(C)CC3)c(F)cc3c(=O)c(C(=O)O)cn1c23 (configuration not stated) [OFLOXACIN] | – | > 64 | – | – | – | – | 2 (≈ 5.53 µM) | – | –
CCn1cc(C(=O)O)c(=O)c2cc(F)c(N3CCNCC3)cc21 [NORFLOXACIN] | – | > 256 | – | – | – | – | 8 (≈ 25.1 µM) | – | –
CO[C@@]1(NC(=O)C(C(=O)O)c2ccc(O)cc2)C(=O)N2C(C(=O)O)=C(CSc3nnnn3C)CO[C@@H]21 (some centres not stated) [MOXALACTAM] | < 0.5 | > 16 | – | – | < 0.5 | 2 (≈ 3.84 µM) | > 16 | 1 (≈ 1.92 µM) | –
C[C@@H](O)[C@H]1C(=O)N2C(C(=O)O)=C(S[C@@H]3CN[C@H](C(=O)N(C)C)C3)[C@H](C)[C@H]12 [MEROPENEM] | – | 6 (≈ 15.6 µM) | – | – | – | 0.12 (≈ 0.313 µM) | > 32 | < 1 | –
CCN[C@@H]1C[C@H](N)[C@@H](O[C@H]2OC(CN)=CC[C@H]2N)[C@H](O)[C@H]1O[C@H]1OC[C@](C)(O)[C@H](NC)[C@H]1O [NETILMICIN] | – | 3 (≈ 6.31 µM) | – | – | – | – | > 128 | – | –
GENTAMICIN | – | 1 | – | – | – | – | > 64 | – | –
CN(C)[C@@H]1C(O)=C(C(N)=O)C(=O)[C@@]2(O)C(O)=C3C(=O)c4c(O)cccc4[C@@](C)(O)[C@H]3C[C@@H]12 [TETRACYCLINE] | – | > 256 | – | – | – | – | > 256 | – | –
COc1cc(Cc2cnc(N)nc2N)cc(OC)c1OC [TRIMETHOPRIM] | – | > 32 | – | – | – | – | > 32 | – | –
C[C@@H](O)[C@H]1C(=O)N2C(C(=O)O)=C(S[C@@H]3CN[C@H](C(=O)Nc4cccc(C(=O)O)c4)C3)[C@H](C)[C@H]12 | – | > 32 | > 32 | > 32 | – | 0.25 (≈ 0.526 µM) | > 32 | < 1 | –
CCn1cc(C(=O)O)c(=O)c2ccc(C)nc21 [NALIDIXIC ACID] | – | > 64 | – | – | – | – | > 64 | – | –
C[C@H]1[C@H](NC(=O)/C(=N\OC(C)(C)C(=O)O)c2csc(N)n2)C(=O)N1S(=O)(=O)O [AZTREONAM] | 64 (≈ 147 µM) | – | 0.5 (≈ 1.15 µM) | 0.5 (≈ 1.15 µM) | 8 (≈ 18.4 µM) | < 0.125 | – | 0.5 (≈ 1.15 µM) | –
CO[C@@]1(NC(=O)Cc2cccs2)C(=O)N2C(C(=O)O)=C(COC(N)=O)CS[C@@H]21 [CEFOXITIN] | 2 (≈ 4.68 µM) | > 32 | > 32 | 16 (≈ 37.4 µM) | 2 (≈ 4.68 µM) | 4 (≈ 9.36 µM) | 16 (≈ 37.4 µM) | 4 (≈ 9.36 µM) | –
NC[C@H]1O[C@H](O[C@H]2[C@H](O)[C@@H](O[C@H]3O[C@H](CO)[C@@H](O)[C@H](N)[C@H]3O)[C@H](N)C[C@@H]2N)[C@H](O)[C@@H](O)[C@@H]1O [KANAMYCIN] | – | 128 (≈ 264 µM) | – | – | – | – | > 256 | – | –

— ChEMBL document CHEMBL1275467, “Spread of OXA-48-positive carbapenem-resistant Klebsiella pneumoniae isolates in Istanbul, Turkey” (2008)
